Data on two compounds can be found in patent US20240066038A1, “WNT MODULATORS TO TREAT CENTRAL NERVOUS SYSTEM INJURIES” (MAYO FOUNDATION FOR MEDICAL EDUCATION AND RESEARCH, priority 2021, published 2024).

Test [1] has as its system Wnt/β-catenin signaling. Put plainly: Total cellular β-catenin level by Western blotting in neuronal N2a cells. Format: cell-based. The settings on record: 24 h, Western blotting normalized to actin. Here is the method:
(A) Compound 1039 activates Wnt/β-catenin signaling in HEK293 cells. HEK293 cells were transfected with Super8XTOPFlash and 8-galactosidase vectors along with Wnt3A or control vector. After 24 h incubation, cells were treated with 1039 at the indicated concentrations for 24 h. The luciferase activity was then measured and normalized to the activity of the 8-galactosidase. All the values are the average of triplicate determinations with the SD values indicated by error bars. This experiment is a representative of 3 such experiments performed with similar data. (B, C) N2a cells were treated with Compound 1039 at the indicated concentrations for 24 h. (B) The levels of total cellular β-catenin were examined by Western blotting. (C) The intensity of the β-catenin bands was quantified and normalized to the corresponding signal for actin. The results represented in the histograms are shown as the mean±SD and are the average of 3 independent experiments.
Wnt/β-catenin signaling plays a critical role in neuronal survival, neurogenesis, synaptogenesis, neuronal plasticity and synaptic plasticity.

The subject of test [2] is Wnt/β-catenin signaling. Put plainly: Axin2 expression by qPCR in hCMEC/D3 cerebral microvascular endothelial cells. Format: cell-based, human. The following applies: serum free medium, 24 h. The protocol: The expression level of Axin2, a specific target of Wnt/β-catenin signaling, was measured by qPCR. The results represented in the histograms are shown as the means±SE and are the average of 3 independent experiments. One-way ANOVA with post hoc Tukey-Kramer honest significant difference test. **, p<0.01.
Studies in past ten years have established that the Wnt/β-catenin pathway is a key pathway required not only for BBB formation but also for BBB integrity and function. Moreover, BBB breakdown following middle cerebral artery occlusion can be potently rescued in mice in which Wnt/β-catenin is specifically activated in brain endothelial cells. On the other hand, dysregulation of Wnt/β-catenin may limit remyelination of white matter lesions (WMLs) and render the BBB leaky.
Background: In qPCR the cycle at which signal appears reflects the starting amount.

The structures appear in SMILES notation.

`Nc1ccccc1NC(=O)c1ccc(C(=O)NCC2CCCN2CCc2ccccc2)cn1` (centres unmarked) [Compound 1039]: the β-catenin level result in test [1] is “enhances β-catenin level in a dose dependent manner”.
For `Nc1ccccc1NC(=O)c1ccc(C(=O)NCC2CCN2C2CCCC2)cn1` (centres unmarked) [Compound 1015], in test [2], the “activation of Wnt/β-catenin signaling (Axin2 expression, qPCR)” value is on record as “able to activate Wnt/β-catenin signaling”.
